Article PMC9019904, “AD Informer Set: Chemical tools to facilitate Alzheimer's disease drug discovery” (Alzheimer's & Dementia : Translational Research & Clinical …, 2022)

Experiments:
[1] = system: BV2 (mouse microglia) cell line; assay: pHrodo-myelin phagocytosis/cell viability high content imaging assay: phagocytosis signal; format: cell-based
In short: (§1)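 Mouse BV2 and human HMC3 microglia given pHrodo-myelin; phagocytosis and cell viability imaged together by high content imaging about 22 hours after myelin addition. Three measurements extracted, including intensity increase and decrease marking early and later apoptosis.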

[2] = system: HMC3 (human microglia) cell line; assay: as above; format: cell-based
In short: as §1

[3] = system: BV2 (mouse microglia) cell line; assay: pHrodo-myelin phagocytosis/cell viability high content imaging assay: viability (cell count, nuclear area, nuclear intensity); details: for 1. Cell count (% control) / 2. Nuclear Area (% Control) / 3. Nuclear DNA Intensity (% control): 48 hours treatment
In short: (§2)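 Duplicate single-point screen at 10 μM over 48 h, combined with pHrodo-myelin phagocytosis during the last 20 h. Cytotoxicity is taken from imaged cell counts and nuclear intensity changes, normalized to untreated wells as % control.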

[4] = system: HMC3 (human microglia) cell line; assay: as above; details: for 1. Cell count (% control) / 2. Nuclear Area (% Control) / 3. Nuclear DNA Intensity (% control): 48 hours treatment
In short: as §2

[5] = BV2 cells, 10 uM compound, 48 hours treatment, pHrodo-myelin final 20 hours
[6] = HMC3 cells, 10 uM compound, 48 hours treatment, pHrodo-myelin final 20 hours
[7] = BV2, compound 10 uM, pHrodo-myelin
[8] = HMC3, compound 10 uM, pHrodo-myelin

Compound	4. Phagocytosis (% control) [1, 5]	4. Phagocytosis (% control) [2, 6]	1. Cell count (% control) ([3]; BV2 cells, 10 uM compound)	2. Nuclear Area (% Control) ([3]; BV2 cells, 10 uM compound)	3. Nuclear DNA Intensity (% control) ([3]; BV2 cells, 10 uM compound)	1. Cell count (% control) ([4]; HMC3 cells, 10 uM compound)	2. Nuclear Area (% Control) ([4]; HMC3 cells, 10 uM compound)	3. Nuclear DNA Intensity (% control) ([4]; HMC3 cells, 10 uM compound)	4. Phagocytosis (% control) [1, 7]	4. Phagocytosis (% control) [2, 8]	1. Cell count (% control) ([3]; BV2, compound 10 uM)	2. Nuclear Area (% Control) ([3]; BV2, compound 10 uM)	3. Nuclear DNA Intensity (% control) ([3]; BV2, compound 10 uM)	1. Cell count (% control) ([4]; HMC3, compound 10 uM)	2. Nuclear Area (% Control) ([4]; HMC3, compound 10 uM)	3. Nuclear DNA Intensity (% control) ([4]; HMC3, compound 10 uM)	further results
Cc1ccc(NC(=O)c2ccc(CN3CCN(C)CC3)cc2)cc1Nc1nc(-c2cccnc2)cs1 [UNC10126573A, masitinib, reference compound]	0.0635 % control	3.5 % control	7.7 % control	107.9 % Control	43.3 % control	71.0 % control	92.7 % Control	124.1 % control	–	–	–	–	–	–	–	–	cytotoxicity in mouse microglial cells (cell count < 70% control) ([3]; BV2, 10 μM, 48 hours, cell count): displayed cytotoxicity only in mouse microglia; cytotoxicity in human microglial cells (cell count < 70% control) ([4]; HMC3, 10 μM, 48 hours, cell count): cytotoxicity only in mouse microglia
COc1cc([C@@H]2c3cc4c(cc3[C@H](O)[C@H]3COC(=O)[C@H]23)OCO4)cc(OC)c1OC [UNC10100984A]	197.0 % control	32.6 % control	10.9 % control	112.2 % Control	112.7 % control	62.5 % control	67.2 % Control	227.6 % control	–	–	–	–	–	–	–	–	–
CN(CCOc1ccc(CC2SC(=O)NC2=O)cc1)c1ccccn1 (stereo not shown) [UNC10121399D]	142.2 % control	81.9 % control	82.8 % control	102.9 % Control	100.2 % control	93.9 % control	101.5 % Control	97.8 % control	–	–	–	–	–	–	–	–	–
Cc1cc2c(cc1C(=O)c1ccc(C(=O)O)cc1)C(C)(C)CCC2(C)C [UNC10302892A]	90.2 % control	75.7 % control	95.3 % control	107.4 % Control	95.0 % control	88.9 % control	102.9 % Control	97.5 % control	–	–	–	–	–	–	–	–	–
CC[C@H](Nc1ncnc2[nH]cnc12)c1nc2cccc(F)c2c(=O)n1-c1ccccc1 [Idelalisib]	–	–	–	–	–	–	–	–	107.9 % control	5.6 % control	17.2 % control	138.0 % Control	108.4 % control	61.4 % control	105.8 % Control	124.0 % control	–
CCCCCCOc1cc2c(cc1N(C)c1ncc(C(=O)O)cn1)C(C)(C)CCC2(C)C [UNC10302707A]	–	–	–	–	–	–	–	–	161.8 % control	53.6 % control	135.9 % control	104.8 % Control	101.8 % control	137.9 % control	106.3 % Control	90.2 % control	–
CC(C)[C@H](O)C(=O)N[C@@H](C)C(=O)N[C@@H]1C(=O)N(C)CCc2ccccc21 [UNC10303095A]	150.0 % control	70.8 % control	134.6 % control	102.1 % Control	104.4 % control	156.2 % control	97.1 % Control	97.3 % control	–	–	–	–	–	–	–	–	–
O=c1[nH]c2ccccc2n1C1CCN(CCCC(c2ccc(F)cc2)c2ccc(F)cc2)CC1 [UNC10101002A]	–	–	–	–	–	–	–	–	134.9 % control	140.6 % control	77.1 % control	99.5 % Control	98.4 % control	97.6 % control	104.3 % Control	96.0 % control	–
CCOC(=O)CS(=O)(=O)c1ccc([C@@H](CO)NC(=O)c2cc3c(Cl)c(Cl)c(C)cc3n2C)cc1 [UNC10302908A]	249.0 % control	53.1 % control	28.9 % control	117.3 % Control	97.5 % control	71.6 % control	75.5 % Control	156.6 % control	–	–	–	–	–	–	–	–	–
N#Cc1ccc(COC[C@H]2O[C@@H](n3c(NCc4ccc(Cl)c(Cl)c4)nc4c(N)ncnc43)[C@H](O)[C@@H]2O)cc1 [UNC10302853A]	176.9 % control	88.3 % control	54.5 % control	107.2 % Control	111.0 % control	92.6 % control	103.1 % Control	98.3 % control	–	–	–	–	–	–	–	–	–
Clc1ccc(N/N=C(\c2ccccc2)c2ccccn2)nc1 [UNC3735A]	273.4 % control	104.5 % control	27.9 % control	119.6 % Control	94.7 % control	86.4 % control	86.7 % Control	135.7 % control	–	–	–	–	–	–	–	–	–
Oc1cc(CNC(=S)/C=C/c2cc(O)c(O)c(Br)c2)cc(O)c1O [UNC10302699A]	–	–	–	–	–	–	–	–	235.2 % control	92.5 % control	17.7 % control	116.2 % Control	76.1 % control	53.7 % control	113.5 % Control	119.4 % control	–
Cc1ccccc1NC(=O)CN1C(=O)N/C(=C/c2ccccc2OCc2ccc(C(=O)O)cc2)C1=O [UNC10302882A]	153.2 % control	89.7 % control	94.9 % control	109.5 % Control	96.5 % control	155.5 % control	101.8 % Control	92.5 % control	–	–	–	–	–	–	–	–	–
Cc1ccc(S(=O)(=O)O)cc1.Nc1n[nH]cc1-c1cc(Cl)ccc1Oc1cc(F)c(S(=O)(=O)Nc2cscn2)cc1Cl [UNC10303160A]	–	–	–	–	–	–	–	–	124.9 % control	74.7 % control	121.5 % control	103.1 % Control	99.3 % control	135.7 % control	95.0 % Control	100.7 % control	–
C=C1C(=O)[C@]23[C@H](O)[C@H]1CC[C@H]2[C@@]12CO[C@]3(O)[C@@H](O)[C@@H]1C(C)(C)CC[C@@H]2O [Oridonin]	–	–	–	–	–	–	–	–	–	–	–	–	–	–	–	–	Stimulation of mouse microglial phagocytosis at 10 μM (>150% control) ([1]; 10 μM, BV2): Y (The compound was found to stimulate phagocytosis (response threshold: >150% control) when murine immortalized microglial cells were dosed at 10 μM (Y: yes)); Inhibition of human microglial phagocytosis at 10 μM (<70% control) ([2]; 10 μM, HMC3): Y (The compound was found to inhibit phagocytosis (response threshold: <70% control) when human immortalized microglial cells were dosed at 10 μM (Y: yes)); Mouse microglial cytotoxicity at 10 μM (<70% control) ([3]; 10 μM, BV2): Y (The compound was found to be cytotoxic (cell count threshold: <70% control) when murine immortalized microglial cells were dosed at 10 μM (Y: yes)); Human microglial cytotoxicity at 10 μM (<70% control) ([4]; 10 μM, HMC3): Y (The compound was found to be cytotoxic (cell count threshold: <70% control) when human immortalized microglial cells were dosed at 10 μM (Y: yes))
